Laboratory results as given in publication PMC9783571, “Component Characterization, In Vitro Activities and Molecular Mechanism of Cydonia oblonga Mill. against Diabetic” (Pharmaceuticals, 2022).
≈ marks a conversion by molar mass, not a printed value.

Molecular target: T1, α-glucosidase
T1 construct: gene MAL12; enzyme preparation
Test: p-NPG hydrolysis, absorbance […] nm
Format: biochemical
Conditions: p-NPG (50 μL of 3 mM), potassium phosphate pH 7.4, 37 °C, 1 h

`O=c1cc(-c2ccc(O)cc2)oc2cc(O)cc(O)c12` [Apigenin] and `O=c1cc(-c2ccc(O)c(O)c2)oc2cc(O)cc(O)c12` [Luteolin] are within 1.5-fold of each other in “IC50” value: 250.8 µg/mL (≈ 928 µM) for the first, 190.4 µg/mL (≈ 665 µM) for the second.

`COc1cc(-c2oc3cc(O)cc(O)c3c(=O)c2O)ccc1O` [Isorhamnetin] was tested, and the “IC50” value was 158.8 µg/mL (≈ 502 µM).

Compound `Oc1cc(O)c2c(c1)O[C@H](c1ccc(O)c(O)c1)[C@H](O)C2` [Epicatechin] has an IC50 of over 5000 µg/mL.
